Reference: US20240109917A1 (ACTELION PHARMACEUTICALS LTD, priority 2020, published 2024)

Experiments:
[1] = target: Tb-labeled inactive PDGFRβ (Homo sapiens (Human), UniProt P09619); experiment: PDGFRβ LanthaScreen Assay; format: binding; conditions: read-out: PDGFR Lantha IC50
[2] = target: VEGFR2, unphosphorylated (Homo sapiens (Human), UniProt P35968); experiment: VEGFR ADP GLO Assay; format: biochemical
VEGFR2, unphosphorylated, sequence (P35968 20-1356): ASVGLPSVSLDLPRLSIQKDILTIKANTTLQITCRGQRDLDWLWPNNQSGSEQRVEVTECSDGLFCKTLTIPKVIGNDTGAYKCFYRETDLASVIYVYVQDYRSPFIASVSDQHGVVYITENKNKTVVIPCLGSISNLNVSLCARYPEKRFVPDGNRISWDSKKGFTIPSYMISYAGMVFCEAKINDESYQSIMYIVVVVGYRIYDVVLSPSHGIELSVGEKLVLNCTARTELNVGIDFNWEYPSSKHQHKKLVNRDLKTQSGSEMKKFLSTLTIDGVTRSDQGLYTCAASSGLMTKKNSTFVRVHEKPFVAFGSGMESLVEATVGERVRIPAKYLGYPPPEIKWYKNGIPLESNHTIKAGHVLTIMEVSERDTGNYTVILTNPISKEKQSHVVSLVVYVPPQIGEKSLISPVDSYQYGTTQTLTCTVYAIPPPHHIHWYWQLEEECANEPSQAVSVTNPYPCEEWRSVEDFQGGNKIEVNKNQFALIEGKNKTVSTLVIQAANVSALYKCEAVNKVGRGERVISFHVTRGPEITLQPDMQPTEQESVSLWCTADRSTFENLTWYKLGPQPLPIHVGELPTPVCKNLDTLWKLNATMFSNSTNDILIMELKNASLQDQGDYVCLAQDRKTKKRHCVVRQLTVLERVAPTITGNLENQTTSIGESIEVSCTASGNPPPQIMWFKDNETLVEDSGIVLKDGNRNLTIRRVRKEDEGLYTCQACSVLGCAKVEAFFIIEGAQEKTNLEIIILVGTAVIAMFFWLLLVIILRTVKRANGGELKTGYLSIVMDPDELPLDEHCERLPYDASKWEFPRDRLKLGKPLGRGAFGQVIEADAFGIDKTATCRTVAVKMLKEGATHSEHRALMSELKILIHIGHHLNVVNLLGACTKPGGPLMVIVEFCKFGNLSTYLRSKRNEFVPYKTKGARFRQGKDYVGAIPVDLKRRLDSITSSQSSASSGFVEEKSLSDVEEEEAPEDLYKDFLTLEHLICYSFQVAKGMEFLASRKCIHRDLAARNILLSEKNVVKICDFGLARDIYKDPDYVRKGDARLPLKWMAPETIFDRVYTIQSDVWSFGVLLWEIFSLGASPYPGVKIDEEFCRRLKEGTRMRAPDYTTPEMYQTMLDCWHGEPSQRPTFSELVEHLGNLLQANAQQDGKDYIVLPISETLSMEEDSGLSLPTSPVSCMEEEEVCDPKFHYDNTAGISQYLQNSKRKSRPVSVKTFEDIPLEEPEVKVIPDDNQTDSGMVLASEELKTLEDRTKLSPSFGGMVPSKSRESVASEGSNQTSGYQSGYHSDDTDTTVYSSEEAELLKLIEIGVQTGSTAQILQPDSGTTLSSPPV

Tb-labeled inactive PDGFRβ, sequence (P09619 33-1106): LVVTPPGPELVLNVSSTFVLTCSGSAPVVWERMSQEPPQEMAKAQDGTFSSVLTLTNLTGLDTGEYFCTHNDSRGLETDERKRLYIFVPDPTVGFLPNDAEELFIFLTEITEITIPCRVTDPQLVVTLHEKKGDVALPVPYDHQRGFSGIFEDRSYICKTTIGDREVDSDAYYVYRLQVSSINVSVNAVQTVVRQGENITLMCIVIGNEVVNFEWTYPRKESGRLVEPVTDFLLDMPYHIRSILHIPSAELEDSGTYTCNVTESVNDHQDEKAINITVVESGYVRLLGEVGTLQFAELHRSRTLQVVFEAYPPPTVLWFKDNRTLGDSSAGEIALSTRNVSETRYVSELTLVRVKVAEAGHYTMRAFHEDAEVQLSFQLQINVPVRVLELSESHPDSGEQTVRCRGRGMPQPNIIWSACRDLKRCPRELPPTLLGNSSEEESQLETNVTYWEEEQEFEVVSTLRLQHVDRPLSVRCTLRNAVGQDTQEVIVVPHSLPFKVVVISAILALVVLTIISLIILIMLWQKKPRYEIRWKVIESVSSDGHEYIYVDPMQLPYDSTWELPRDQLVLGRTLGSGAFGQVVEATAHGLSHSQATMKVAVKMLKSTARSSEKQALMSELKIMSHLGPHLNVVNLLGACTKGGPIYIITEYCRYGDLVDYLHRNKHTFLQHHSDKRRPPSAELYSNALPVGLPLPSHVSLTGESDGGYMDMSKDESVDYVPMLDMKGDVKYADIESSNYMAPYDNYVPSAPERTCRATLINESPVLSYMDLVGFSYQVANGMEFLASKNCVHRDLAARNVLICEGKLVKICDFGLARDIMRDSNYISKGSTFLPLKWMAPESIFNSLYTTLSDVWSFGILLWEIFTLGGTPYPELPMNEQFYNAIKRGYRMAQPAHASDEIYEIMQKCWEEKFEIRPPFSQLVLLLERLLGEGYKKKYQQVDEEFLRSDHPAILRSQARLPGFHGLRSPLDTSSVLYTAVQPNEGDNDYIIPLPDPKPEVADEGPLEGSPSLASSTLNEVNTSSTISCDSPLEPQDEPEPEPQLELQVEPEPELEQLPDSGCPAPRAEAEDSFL

Q: What does the source list for `COCCn1cc(-c2cn3ncc(C(=O)Nc4cc(NC(=O)CN5C[C@H]6CC[C@@H]5C6)cnc4C)c3s2)cn1` [Example 334, N-(5-(2-((1R,4S)-2-azabicyclo[2.2.1]heptan-2-yl)acetamido)-2-methylpyridin-3-yl)-2-(1-(2-methoxyethyl)-1H-pyrazol-4-yl)pyrazolo[5,1-b]thiazole-7-carboxamide]?
A: IC50 [1]: 9.1 nM; IC50 [2]: > 7500 nM

Q: How did the IC50 [1] turn out when `Cc1ncc(NC(=O)CN2C[C@H](CO)OC(C)(C)C2)cc1NC(=O)c1cnn2cc(-c3cnn(C)c3)sc12` [Example 376, (R)—N-(5-(2-(6-(hydroxymethyl)-2,2-dimethylmorpholino)acetamido)-2-methylpyridin-3-yl)-2-(1-methyl-1H-pyrazol-4-yl)pyrazolo[5,1-b]thiazole-7-carboxamide] was run?
A: 5.6 nM

Q: And the IC50 [2]?
A: > 7500 nM

Q: `COCCn1cc(-c2cn3ncc(C(=O)Nc4cc(NC(=O)CN5CCCC56CCC6)cnc4C)c3s2)cn1` [Example 332, N-(5-(2-(5-azaspiro[3.4]octan-5-yl)acetamido)-2-methylpyridin-3-yl)-2-(1-(2-methoxyethyl)-1H-pyrazol-4-yl)pyrazolo[5,1-b]thiazole-7-carboxamide] was tested. Which IC50 [1] did it give?
A: 4.1 nM

Q: And the IC50 [2]?
A: > 7500 nM

Q: For `COCCn1cc(-c2cn3ncc(C(=O)Nc4cc(NC(=O)[C@H]5CCCN5C(C)C)cnc4C)c3s2)cn1` [Example 344, (R)—N-(5-(1-isopropylpyrrolidine-2-carboxamido)-2-methylpyridin-3-yl)-2-(1-(2-methoxyethyl)-1H-pyrazol-4-yl)pyrazolo[5,1-b]thiazole-7-carboxamide], which IC50 [1] is on record?
A: 67.5 nM

Q: What about the IC50 [2] of the same compound?
A: > 7500 nM

Q: `Cc1ncc(NC(=O)CN2CCC3(CC3)C2)cc1NC(=O)c1cnn2cc(-c3cnn(CCO)c3)sc12` [Example 32, N-(5-(2-(5-azaspiro[2.4]heptan-5-yl)acetamido)-2-methylpyridin-3-yl)-2-(1-(2-hydroxyethyl)-1H-pyrazol-4-yl)pyrazolo[5,1-b]thiazole-7-carboxamide] was tested. Which IC50 [1] did it give?
A: 5.5 nM

Q: And the IC50 [2]?
A: > 7500 nM

Q: What does the source list for `Cc1ncc(NC(=O)CN2C[C@H](C)O[C@@H](C)C2)cc1NC(=O)c1cnn2cc(-c3cnn4c3OCCC4)sc12` (relative stereo) [Example 375, 2-(6,7-dihydro-5H-pyrazolo[5,1-b][1,3]oxazin-3-yl)-N-(5-(2-(trans-2,6-dimethylmorpholino)acetamido)-2-methylpyridin-3-yl)pyrazolo[5,1-b]thiazole-7-carboxamide]?
A: IC50 [1]: 4.5 nM; IC50 [2]: > 833 nM

Q: How did the IC50 [1] turn out when `COc1cnccc1-c1cn2ncc(C(=O)Nc3cc(NC(=O)CN4CC(C)(C)C4)cnc3C)c2s1` [Example 399, N-(5-(2-(3,3-dimethylazetidin-1-yl)acetamido)-2-methylpyridin-3-yl)-2-(3-methoxypyridin-4-yl)pyrazolo[5,1-b]thiazole-7-carboxamide] was run?
A: 1.1 nM

Q: And the IC50 [2]?
A: 4770 nM

Q: With `Cc1ncc(NC(=O)[C@@H]2CCCN2C(C)C)cc1NC(=O)c1cnn2cc(-c3cnn4c3OCCC4)sc12` [Example 346, (S)-2-(6,7-dihydro-5H-pyrazolo[5,1-b][1,3]oxazin-3-yl)-N-(5-(1-isopropylpyrrolidine-2-carboxamido)-2-methylpyridin-3-yl)pyrazolo[5,1-b]thiazole-7-carboxamide] as the compound, how does the IC50 [1] read?
A: 6.5 nM

Q: What about the IC50 [2] of the same compound?
A: > 7500 nM

Q: With `COc1ncccc1-c1cn2ncc(C(=O)Nc3cc(NC(=O)CN4CC5(COC5)C4)cnc3C)c2s1` [Example 404, N-(5-(2-(2-oxa-6-azaspiro[3.3]heptan-6-yl)acetamido)-2-methylpyridin-3-yl)-2-(2-methoxypyridin-3-yl)pyrazolo[5,1-b]thiazole-7-carboxamide] as the compound, how does the IC50 [1] read?
A: 4.9 nM

Q: What about the IC50 [2] of the same compound?
A: > 7500 nM

Q: Which results are given for `Cc1ncc(NC(=O)CN2CCC3(CCC3)C2)cc1NC(=O)c1cnn2cc(-c3cnn(CCO)c3)sc12` [Example 30, N-(5-(2-(6-azaspiro[3.4]octan-6-yl)acetamido)-2-methylpyridin-3-yl)-2-(1-(2-hydroxyethyl)-1H-pyrazol-4-yl)pyrazolo[5,1-b]thiazole-7-carboxamide]?
A: IC50 [1]: 3.3 nM; IC50 [2]: > 7500 nM

Q: How did the IC50 [1] turn out when `Cc1ncc(C(=O)NCCN2CCCC2(C)C)cc1NC(=O)c1cnn2cc(-c3cnn(Cc4cc(OCc5ccccc5)no4)c3)sc12` [Example 362, 2-(1-((3-(benzyloxy)isoxazol-5-yl)methyl)-1H-pyrazol-4-yl)-N-(5-((2-(2,2-dimethylpyrrolidin-1-yl)ethyl)carbamoyl)-2-methylpyridin-3-yl)pyrazolo[5,1-b]thiazole-7-carboxamide] was run?
A: 4.5 nM

Q: What about the IC50 [2] of the same compound?
A: > 2500 nM

Q: Which results are given for `COc1ncccc1-c1cn2ncc(C(=O)Nc3cc(NC(=O)CN4CC(C)(OC)C4)cnc3C)c2s1` [Example 396, N-(5-(2-(3-methoxy-3-methylazetidin-1-yl)acetamido)-2-methylpyridin-3-yl)-2-(2-methoxypyridin-3-yl)pyrazolo[5,1-b]thiazole-7-carboxamide]?
A: IC50 [1]: 1.8 nM; IC50 [2]: > 7500 nM

Q: For `COCCn1cc(-c2cn3ncc(C(=O)Nc4cc(NC(=O)CN5CCCC6(CC6)C5)cnc4C)c3s2)cn1` [Example 335, N-(5-(2-(5-azaspiro[2.5]octan-5-yl)acetamido)-2-methylpyridin-3-yl)-2-(1-(2-methoxyethyl)-1H-pyrazol-4-yl)pyrazolo[5,1-b]thiazole-7-carboxamide], which IC50 [1] is on record?
A: 3 nM

Q: And the IC50 [2]?
A: > 7500 nM

Q: Which results are given for `COCCn1cc(-c2cn3ncc(C(=O)Nc4cc(NC(=O)CN5CCC(C)(C)C5)cnc4C)c3s2)cn1` [Example 336, N-(5-(2-(3,3-dimethylpyrrolidin-1-yl)acetamido)-2-methylpyridin-3-yl)-2-(1-(2-methoxyethyl)-1H-pyrazol-4-yl)pyrazolo[5,1-b]thiazole-7-carboxamide]?
A: IC50 [1]: 3.3 nM; IC50 [2]: > 7500 nM

Q: `COc1ccncc1-c1cn2ncc(C(=O)Nc3cc(NC(=O)CN4C[C@H](C)O[C@@H](C)C4)cnc3C)c2s1` (relative stereo) [Example 385, N-(5-(2-(trans-2,6-dimethylmorpholino)acetamido)-2-methylpyridin-3-yl)-2-(4-methoxypyridin-3-yl)pyrazolo[5,1-b]thiazole-7-carboxamide] was tested. Which IC50 [1] did it give?
A: 4.9 nM

Q: And the IC50 [2]?
A: > 833 nM

Q: What does the source list for `Cc1ncc(NC(=O)CN2CC3CCC(C2)O3)cc1NC(=O)c1cnn2cc(-c3cc[nH]c3)sc12` [Example 366, N-(5-(2-(8-oxa-3-azabicyclo[3.2.1]octan-3-yl)acetamido)-2-methylpyridin-3-yl)-2-(1H-pyrrol-3-yl)pyrazolo[5,1-b]thiazole-7-carboxamide]?
A: IC50 [1]: 2.5 nM; IC50 [2]: 571 nM

Q: Which results are given for `Cc1ncc(NC(=O)CN2C[C@H](C)O[C@@H](C)C2)cc1NC(=O)c1cnn2cc(-c3cnc(N)c(F)c3)sc12` (relative stereo) [Example 372, 2-(6-amino-5-fluoropyridin-3-yl)-N-(5-(2-(trans-2,6-dimethylmorpholino)acetamido)-2-methylpyridin-3-yl)pyrazolo[5,1-b]thiazole-7-carboxamide]?
A: IC50 [1]: 7.7 nM; IC50 [2]: > 2500 nM

Q: What does the source list for `Cc1ncc(NC(=O)C2CCN(C(C)C)C2)cc1NC(=O)c1cnn2cc(-c3cn(C)nc3C)sc12` (centres unmarked) [Example 355, 2-(1,3-dimethyl-1H-pyrazol-4-yl)-N-(5-(1-isopropylpyrrolidine-3-carboxamido)-2-methylpyridin-3-yl)pyrazolo[5,1-b]thiazole-7-carboxamide]?
A: IC50 [1]: 11.3 nM; IC50 [2]: > 7500 nM

Q: Which IC50 [1] does the source give for `Cc1ncc(NC(=O)C2CN(C(C)C)C2)cc1NC(=O)c1cnn2cc(-c3cnn(C)c3C)sc12` [Example 357, 2-(1,5-dimethyl-1H-pyrazol-4-yl)-N-(5-(1-isopropylazetidine-3-carboxamido)-2-methylpyridin-3-yl)pyrazolo[5,1-b]thiazole-7-carboxamide] here?
A: 4.5 nM

Q: What about the IC50 [2] of the same compound?
A: > 7500 nM

Q: What does the source list for `COCCn1cc(-c2cn3ncc(C(=O)Nc4cc(NC(=O)C5CCN(C(C)C)C5)cnc4C)c3s2)cn1` (centres unmarked) [Example 345, N-(5-(1-isopropylpyrrolidine-3-carboxamido)-2-methylpyridin-3-yl)-2-(1-(2-methoxyethyl)-1H-pyrazol-4-yl)pyrazolo[5,1-b]thiazole-7-carboxamide]?
A: IC50 [1]: 56.9 nM; IC50 [2]: > 7500 nM

Q: What does the source list for `COCC1CN(CC(=O)Nc2cnc(C)c(NC(=O)c3cnn4cc(-c5cnn(C)c5)sc34)c2)CC(C)(C)O1` (centres unmarked) [Example 383, N-(5-(2-(6-(methoxymethyl)-2,2-dimethylmorpholino)acetamido)-2-methylpyridin-3-yl)-2-(1-methyl-1H-pyrazol-4-yl)pyrazolo[5,1-b]thiazole-7-carboxamide]?
A: IC50 [1]: 7.8 nM; IC50 [2]: > 2500 nM

Q: With `COCCCc1cn2ncc(C(=O)Nc3cc(C(=O)NCCN4CCCC4(C)C)cnc3C)c2s1` [Example 360, N-(5-((2-(2,2-dimethylpyrrolidin-1-yl)ethyl)carbamoyl)-2-methylpyridin-3-yl)-2-(3-methoxypropyl)pyrazolo[5,1-b]thiazole-7-carboxamide] as the compound, how does the IC50 [1] read?
A: 100 nM

Q: And the IC50 [2]?
A: > 7500 nM

Q: Which results are given for `Cc1ncc(NC(=O)CN2CCC23CCC3)cc1NC(=O)c1cnn2cc(-c3ccnc(N4CCOCC4)c3)sc12` [Example 353, N-(5-(2-(1-azaspiro[3.3]heptan-1-yl)acetamido)-2-methylpyridin-3-yl)-2-(2-morpholinopyridin-4-yl)pyrazolo[5,1-b]thiazole-7-carboxamide]?
A: IC50 [1]: 1.4 nM; IC50 [2]: > 7500 nM

Q: Which IC50 [1] does the source give for `COCCn1cc(-c2cn3ncc(C(=O)Nc4cc(NC(=O)[C@@H]5CCCN5C(C)C)cnc4C)c3s2)cn1` [Example 343, (S)—N-(5-(1-isopropylpyrrolidine-2-carboxamido)-2-methylpyridin-3-yl)-2-(1-(2-methoxyethyl)-1H-pyrazol-4-yl)pyrazolo[5,1-b]thiazole-7-carboxamide] here?
A: 84.8 nM

Q: What about the IC50 [2] of the same compound?
A: > 7500 nM

Q: What does the source list for `Cc1ncc(NC(=O)CN2C[C@H](C)O[C@@H](C)C2)cc1NC(=O)c1cnn2cc(-c3c(C)n[nH]c3C)sc12` (relative stereo) [Example 373, 2-(3,5-dimethyl-1H-pyrazol-4-yl)-N-(5-(2-(trans-2,6-dimethylmorpholino)acetamido)-2-methylpyridin-3-yl)pyrazolo[5,1-b]thiazole-7-carboxamide]?
A: IC50 [1]: 7 nM; IC50 [2]: > 7500 nM
